Values joined by “and” are separate entries in the source; they are usually repeats but may differ in a detail not shown here. Equal entries are not always repeated. Toxic doses and inconclusive results are not listed. How the source made its calls: active means survival T/C of 150% or more; inactive means T/C below 125% in these data.
Test system: BDF1 mice, P388 leukemia ip, median survival T/C
Experiment: NCI In Vivo Anticancer Drug Screen. Data for tumor model P388 Leukemia (intraperitoneal) in B6D2F1 (BDF1) mice
Details: endpoint: median survival time, higher = longer survival
Outline: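 Vehicle-dosed animals serve as the reference; survival of compound-dosed, tumour-implanted mice is divided by it.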

[1] = dose: 100.0 mg/kg/injection, schedule: Q04DX003 (ip), vehicle: Klucel (hydroxypropylcellulose) (HPC)
[2] = dose: 200.0 mg/kg/injection, schedule: Q04DX003 (ip), vehicle: Klucel (hydroxypropylcellulose) (HPC)
[3] = dose: 400.0 mg/kg/injection, schedule: Q04DX003 (ip), vehicle: Klucel (hydroxypropylcellulose) (HPC)
[4] = dose: 25.0 mg/kg/injection, schedule: Q04DX003 (ip), vehicle: saline with Tween-80
[5] = dose: 50.0 mg/kg/injection, schedule: Q01DX009 (ip), vehicle: saline with Tween-80
[6] = dose: 100.0 mg/kg/injection, schedule: Q01DX009 (ip), vehicle: saline with Tween-80
[7] = dose: 100.0 mg/kg/injection, schedule: Q04DX003 (ip), vehicle: saline with Tween-80
[8] = dose: 200.0 mg/kg/injection, schedule: Q01DX009 (ip), vehicle: saline with Tween-80
[9] = dose: 200.0 mg/kg/injection, schedule: Q04DX003 (ip), vehicle: saline with Tween-80
[10] = dose: 25.0 mg/kg/injection, schedule: Q01DX009 (ip), vehicle: Klucel (hydroxypropylcellulose) (HPC)
[11] = dose: 25.0 mg/kg/injection, schedule: Q04DX003 (ip), vehicle: Klucel (hydroxypropylcellulose) (HPC)
[12] = dose: 50.0 mg/kg/injection, schedule: Q04DX003 (ip), vehicle: Klucel (hydroxypropylcellulose) (HPC)
[13] = dose: 100.0 mg/kg/injection, schedule: Q01DX009 (ip), vehicle: Klucel (hydroxypropylcellulose) (HPC)
[14] = dose: 200.0 mg/kg/injection, schedule: Q01DX009 (ip), vehicle: Klucel (hydroxypropylcellulose) (HPC)
[15] = dose: 400.0 mg/kg/injection, schedule: Q01DX009 (ip), vehicle: Klucel (hydroxypropylcellulose) (HPC)
[16] = dose: 50.0 mg/kg/injection, schedule: Q01DX009 (ip), vehicle: Klucel (hydroxypropylcellulose) (HPC)
[17] = dose: 50.0 mg/kg/injection, schedule: Q01DX009 (ip), vehicle: saline
[18] = dose: 50.0 mg/kg/injection, schedule: Q04DX003 (ip), vehicle: saline
[19] = dose: 100.0 mg/kg/injection, schedule: Q04DX003 (ip), vehicle: saline
[20] = dose: 200.0 mg/kg/injection, schedule: Q04DX003 (ip), vehicle: saline

Measured: T/C

CC(=O)Oc1ccc(C2(c3ccc(OC(C)=O)cc3)C(=O)Nc3ccccc32)cc1
inactive: [1] 95 % of control | [2] 104 % of control | [3] 100 % of control

COC(=O)C1CC(=O)N(C)c2sc(C)c(C)c2C1=O (configuration not stated)
inactive: [4] 107 % of control | [5] 111 % of control | dose: 50.0 mg/kg/injection, schedule: Q04DX003 (ip), vehicle: saline with Tween-80 92 % of control and 94 % of control | [6] 111 % of control | [7] 92 % of control | [8] 92 % of control | [9] 95 % of control and 104 % of control | dose: 400.0 mg/kg/injection, schedule: Q04DX003 (ip), vehicle: saline with Tween-80 100 % of control and 107 % of control | dose: 500.0 mg/kg/injection, schedule: Q04DX003 (ip), vehicle: saline with Tween-80 100 % of control

c1ccc(OCc2ccc(COc3ccccc3)cc2)cc1
inactive: dose: 6.25 mg/kg/injection, schedule: Q01DX009 (ip), vehicle: Klucel (hydroxypropylcellulose) (HPC) 96 % of control | dose: 12.5 mg/kg/injection, schedule: Q01DX009 (ip), vehicle: Klucel (hydroxypropylcellulose) (HPC) 96 % of control | [10] 92 % of control and 96 % of control | [11] 100 % of control | [12] 104 % of control | [13] 92 % of control | [1] 100 % of control

CN(C)c1ccc(Cc2ccc(N(C)C)nc2)cn1
inactive: [13] 100 % of control | [1] 95 % of control | [14] 110 % of control | [2] 100 % of control | [15] 100 % of control | [3] 95 % of control

C/C=C(\C)C(=O)OC1C(=O)OC2CC3C(C)=CC(=O)C(O)C3(C)C3C4(O)OCC23C1C(C)C4O (configuration not stated)
inactive: dose: 0.06 mg/kg/injection, schedule: Q01DX009 (ip), vehicle: saline with Tween-80 89 % of control | dose: 0.12 mg/kg/injection, schedule: Q01DX009 (ip), vehicle: saline with Tween-80 104 % of control | dose: 0.25 mg/kg/injection, schedule: Q01DX009 (ip), vehicle: saline with Tween-80 98 % of control | dose: 0.5 mg/kg/injection, schedule: Q01DX009 (ip), vehicle: saline with Tween-80 107 % of control | dose: 1.0 mg/kg/injection, schedule: Q01DX009 (ip), vehicle: saline with Tween-80 103 % of control | dose: 2.0 mg/kg/injection, schedule: Q01DX009 (ip), vehicle: saline with Tween-80 104 % of control | dose: 4.0 mg/kg/injection, schedule: Q01DX009 (ip), vehicle: saline with Tween-80 110 % of control | dose: 8.0 mg/kg/injection, schedule: Q01DX009 (ip), vehicle: saline with Tween-80 100 % of control

CCCCc1c(C(=O)OCC)oc(C(=O)OCC)c(CCCC)c1=O
inactive: dose: 12.5 mg/kg/injection, schedule: Q04DX003 (ip), vehicle: Klucel (hydroxypropylcellulose) (HPC) 99 % of control | [11] 91 % of control | [12] 115 % of control | [1] 91 % of control | [3] 102 % of control

C=C1CCC2(C(C)C)CC12 (configuration not stated)
inactive: dose: 100.0 mg/kg/injection, schedule: Q01DX001 (ip), vehicle: saline sonified 109 % of control | dose: 200.0 mg/kg/injection, schedule: Q01DX001 (ip), vehicle: saline sonified 104 % of control | dose: 400.0 mg/kg/injection, schedule: Q01DX001 (ip), vehicle: saline sonified 104 % of control

C[C@]12CCC(=O)C=C1CC[C@H]1[C@@H]3CC[C@@]4(OCC4=O)[C@@]3(C)C[C@H](O)[C@@]12F
inactive: [10] 96 % of control | [16] 104 % of control | [13] 104 % of control | [1] 104 % of control | [2] 112 % of control | [3] 108 % of control

Cc1ccc(NS(=O)(=O)c2ccc(F)cc2)c(C)c1
inactive: [1] 100 % of control | [2] 100 % of control | [3] 100 % of control

O=P(N1CC1)(N1CC1)N1CC1
active: dose: 3.0 mg/kg/injection, schedule: Q01DX010 (ip), vehicle: saline 204 % of control

C=C1C(=O)OC2C3OC(C)(CCC(OC(C)=O)C3COC(C)=O)CC(OC(=O)/C(=C\C)COC(C)=O)C12 (configuration not stated)
inactive: [10] 106 % of control | [16] 106 % of control | [13] 118 % of control

NOCc1cccc(CON)c1
inactive: dose: 12.5 mg/kg/injection, schedule: Q01DX009 (ip), vehicle: saline 100 % of control | dose: 25.0 mg/kg/injection, schedule: Q01DX009 (ip), vehicle: saline 87 % of control | [17] 91 % of control | [18] 91 % of control | [19] 91 % of control | [20] 91 % of control

CC(C)(O)C1C2OC(=O)C1C1(O)CC3OC34C(=O)OC2C14C (configuration not stated)
inactive: dose: 12.5 mg/kg/injection, schedule: Q04DX003 (ip), vehicle: saline with Tween-80 109 % of control | [4] 95 % of control

Nc1n[nH]c(=S)n1-c1ccccc1
inactive: dose: 100.0 mg/kg/injection, schedule: Q01DX001 (ip), vehicle: Klucel (hydroxypropylcellulose) (HPC) 104 % of control | [13] 95 % of control | dose: 200.0 mg/kg/injection, schedule: Q01DX001 (ip), vehicle: Klucel (hydroxypropylcellulose) (HPC) 95 % of control | [14] 91 % of control | dose: 400.0 mg/kg/injection, schedule: Q01DX001 (ip), vehicle: Klucel (hydroxypropylcellulose) (HPC) 90 % of control | [15] 104 % of control

O=C1Oc2ccccc2C1=O
inactive: [17] 100 % of control | [18] 100 % of control | dose: 100.0 mg/kg/injection, schedule: Q01DX009 (ip), vehicle: saline 100 % of control | [19] 100 % of control | [20] 100 % of control

O=C1NC(c2cccc(OCc3ccccc3)c2)Nc2ccccc21 (configuration not stated)
inactive: dose: 3.13 mg/kg/injection, schedule: Q01DX009 (ip), vehicle: Klucel (hydroxypropylcellulose) (HPC) 97 % of control | [10] 94 % of control and 110 % of control | [16] 108 % of control | [13] 120 % of control
active: dose: 62.5 mg/kg/injection, schedule: Q01DX009 (ip), vehicle: Klucel (hydroxypropylcellulose) (HPC) 150 % of control | dose: 250.0 mg/kg/injection, schedule: Q01DX009 (ip), vehicle: Klucel (hydroxypropylcellulose) (HPC) 166 % of control

CC(=O)Nc1ccc2c(c1)OCO2
inactive: [5] 104 % of control | [6] 104 % of control | [7] 95 % of control | [8] 90 % of control | [9] 113 % of control

O=CC12Cc3ccccc3C1CCC1(C2)OCCO1 (configuration not stated)
inactive: dose: 100.0 mg/kg/injection, schedule: Q04DX003 (ip), vehicle: saline sonified 90 % of control | dose: 200.0 mg/kg/injection, schedule: Q04DX003 (ip), vehicle: saline sonified 110 % of control | dose: 400.0 mg/kg/injection, schedule: Q04DX003 (ip), vehicle: saline sonified 110 % of control

O=C1OC(=Nc2cccc([N+](=O)[O-])c2)c2ccccc21
active: [5] 150 % of control
inactive: [8] 97 % of control

O=c1cc(N=Nc2ccc(O)cc2)[nH]c(=O)[nH]1
inactive: dose: 25.0 mg/kg/injection, schedule: Q01DX009 (ip), vehicle: water 100 % of control | dose: 50.0 mg/kg/injection, schedule: Q01DX009 (ip), vehicle: water 106 % of control | dose: 50.0 mg/kg/injection, schedule: Q04DX003 (ip), vehicle: water 104 % of control and 107 % of control | dose: 100.0 mg/kg/injection, schedule: Q01DX009 (ip), vehicle: water 106 % of control | dose: 100.0 mg/kg/injection, schedule: Q04DX003 (ip), vehicle: water 93 % of control and 98 % of control | dose: 200.0 mg/kg/injection, schedule: Q01DX009 (ip), vehicle: water 114 % of control | dose: 200.0 mg/kg/injection, schedule: Q04DX003 (ip), vehicle: water 98 % of control and 102 % of control and 117 % of control | dose: 400.0 mg/kg/injection, schedule: Q01DX009 (ip), vehicle: water 100 % of control | dose: 400.0 mg/kg/injection, schedule: Q04DX003 (ip), vehicle: water 109 % of control and 111 % of control and 117 % of control

NC1=C(N2CC2)C(=O)C(N)=C(N2CC2)C1=O
active: dose: 100.0 micrograms/kg/injection, schedule: Q01DX009 (ip), vehicle: saline 178 % of control

O=S(=O)(O)CNc1ccccc1
inactive: [19] 100 % of control | [20] 109 % of control | dose: 400.0 mg/kg/injection, schedule: Q04DX003 (ip), vehicle: saline 95 % of control

From PubChem BioAssay AID328 (DTP/NCI, 2004)
